Columns and labels:
[1] = target: Vascular endothelial growth factor receptor 2 (Homo sapiens, UniProt P35968); assay: Selectivity interaction (KinomeScan (DiscoverX)) EUB0000699a KDR; settings: at 10 µM
[2] = target: Activin receptor type-2B (Homo sapiens) (UniProt Q13705); settings: at 10 µM
[3] = target: T1, Dual specificity tyrosine-phosphorylation-regulated kinase 2 (Homo sapiens) (UniProt Q92630); assay: Selectivity interaction (KinomeScan (DiscoverX)) EUB0000666a DYRK2; settings: at 10 µM
T1 sequence (whole entry): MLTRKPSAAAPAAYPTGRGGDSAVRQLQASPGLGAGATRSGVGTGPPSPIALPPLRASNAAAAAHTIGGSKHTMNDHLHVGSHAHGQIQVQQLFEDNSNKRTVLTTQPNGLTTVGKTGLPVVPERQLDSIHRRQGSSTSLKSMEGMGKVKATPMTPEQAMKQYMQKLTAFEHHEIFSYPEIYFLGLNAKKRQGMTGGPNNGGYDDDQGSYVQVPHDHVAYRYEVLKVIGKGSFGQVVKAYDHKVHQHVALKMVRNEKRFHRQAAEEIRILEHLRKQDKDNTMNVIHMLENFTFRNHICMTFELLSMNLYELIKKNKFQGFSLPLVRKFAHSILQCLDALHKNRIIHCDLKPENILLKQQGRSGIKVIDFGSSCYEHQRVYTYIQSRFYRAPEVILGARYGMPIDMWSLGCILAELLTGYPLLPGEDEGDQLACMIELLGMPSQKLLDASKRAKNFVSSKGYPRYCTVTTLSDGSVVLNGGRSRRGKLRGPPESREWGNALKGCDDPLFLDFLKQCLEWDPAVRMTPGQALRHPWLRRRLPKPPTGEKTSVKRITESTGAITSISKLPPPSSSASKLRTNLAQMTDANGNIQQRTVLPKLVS

[4] = target: Cyclin-dependent kinase 1/cyclin B (Homo sapiens) (UniProt P06493+P14635+Q8WWL7+O95067); assay: Selectivity interaction (Kinase panel (Invitrogen)) EUB0000639a CDK1; type: protein-complex assay; settings: at 200 nM
[5] = target: T2, Protein kinase C epsilon type (Homo sapiens) (UniProt Q02156); assay: Selectivity interaction (KinomeScan (DiscoverX)) EUB0001049a PRKCE; settings: at 1 µM
T2 sequence (whole entry): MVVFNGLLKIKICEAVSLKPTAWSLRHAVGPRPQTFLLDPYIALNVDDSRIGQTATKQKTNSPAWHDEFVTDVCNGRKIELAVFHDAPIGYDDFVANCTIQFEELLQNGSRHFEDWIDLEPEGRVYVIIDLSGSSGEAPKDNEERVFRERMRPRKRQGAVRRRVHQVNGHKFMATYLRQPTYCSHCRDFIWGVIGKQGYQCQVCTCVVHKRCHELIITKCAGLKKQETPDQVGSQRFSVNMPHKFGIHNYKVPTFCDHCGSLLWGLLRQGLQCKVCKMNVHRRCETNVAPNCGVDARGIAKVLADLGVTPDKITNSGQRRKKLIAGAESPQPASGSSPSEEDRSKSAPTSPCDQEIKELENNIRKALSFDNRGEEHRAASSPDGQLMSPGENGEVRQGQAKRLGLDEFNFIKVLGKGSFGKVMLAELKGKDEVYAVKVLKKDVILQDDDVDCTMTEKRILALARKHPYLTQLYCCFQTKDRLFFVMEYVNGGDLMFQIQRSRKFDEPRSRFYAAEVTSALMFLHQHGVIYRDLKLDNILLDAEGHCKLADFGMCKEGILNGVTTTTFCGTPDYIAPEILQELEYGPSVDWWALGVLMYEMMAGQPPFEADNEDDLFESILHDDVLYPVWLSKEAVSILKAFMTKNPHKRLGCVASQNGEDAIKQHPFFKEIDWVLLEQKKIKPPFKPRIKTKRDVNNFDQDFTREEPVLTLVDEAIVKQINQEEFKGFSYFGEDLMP

[6] = target: P2Y purinoceptor 2 (Homo sapiens) (UniProt P41231); assay: Selectivity interaction (Eurofins CEREP Diversity Profile (receptors and ion channels)) EUB0000279b P2RY2; settings: at 10 µM
P2Y purinoceptor 2 (Homo sapiens), sequence (P41231 whole entry): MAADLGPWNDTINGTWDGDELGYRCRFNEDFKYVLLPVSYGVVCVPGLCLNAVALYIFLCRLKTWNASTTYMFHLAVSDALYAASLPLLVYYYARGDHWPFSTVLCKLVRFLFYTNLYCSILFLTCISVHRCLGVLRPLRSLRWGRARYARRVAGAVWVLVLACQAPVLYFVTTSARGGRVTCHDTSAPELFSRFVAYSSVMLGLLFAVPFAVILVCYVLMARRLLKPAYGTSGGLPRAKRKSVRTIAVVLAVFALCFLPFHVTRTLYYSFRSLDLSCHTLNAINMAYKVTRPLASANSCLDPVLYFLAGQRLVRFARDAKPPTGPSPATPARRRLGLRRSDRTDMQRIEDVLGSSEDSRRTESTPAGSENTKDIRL

[7] = target: Tyrosine-protein kinase ABL1 (Homo sapiens, UniProt P00519); assay: Selectivity interaction (Ambit KINOMEscan and KiNATiv profiling in Jurkat cells) EUB0000090b ABL1; type: cell-based; settings: at 1 µM
Tyrosine-protein kinase ABL1, sequence (P00519 whole entry): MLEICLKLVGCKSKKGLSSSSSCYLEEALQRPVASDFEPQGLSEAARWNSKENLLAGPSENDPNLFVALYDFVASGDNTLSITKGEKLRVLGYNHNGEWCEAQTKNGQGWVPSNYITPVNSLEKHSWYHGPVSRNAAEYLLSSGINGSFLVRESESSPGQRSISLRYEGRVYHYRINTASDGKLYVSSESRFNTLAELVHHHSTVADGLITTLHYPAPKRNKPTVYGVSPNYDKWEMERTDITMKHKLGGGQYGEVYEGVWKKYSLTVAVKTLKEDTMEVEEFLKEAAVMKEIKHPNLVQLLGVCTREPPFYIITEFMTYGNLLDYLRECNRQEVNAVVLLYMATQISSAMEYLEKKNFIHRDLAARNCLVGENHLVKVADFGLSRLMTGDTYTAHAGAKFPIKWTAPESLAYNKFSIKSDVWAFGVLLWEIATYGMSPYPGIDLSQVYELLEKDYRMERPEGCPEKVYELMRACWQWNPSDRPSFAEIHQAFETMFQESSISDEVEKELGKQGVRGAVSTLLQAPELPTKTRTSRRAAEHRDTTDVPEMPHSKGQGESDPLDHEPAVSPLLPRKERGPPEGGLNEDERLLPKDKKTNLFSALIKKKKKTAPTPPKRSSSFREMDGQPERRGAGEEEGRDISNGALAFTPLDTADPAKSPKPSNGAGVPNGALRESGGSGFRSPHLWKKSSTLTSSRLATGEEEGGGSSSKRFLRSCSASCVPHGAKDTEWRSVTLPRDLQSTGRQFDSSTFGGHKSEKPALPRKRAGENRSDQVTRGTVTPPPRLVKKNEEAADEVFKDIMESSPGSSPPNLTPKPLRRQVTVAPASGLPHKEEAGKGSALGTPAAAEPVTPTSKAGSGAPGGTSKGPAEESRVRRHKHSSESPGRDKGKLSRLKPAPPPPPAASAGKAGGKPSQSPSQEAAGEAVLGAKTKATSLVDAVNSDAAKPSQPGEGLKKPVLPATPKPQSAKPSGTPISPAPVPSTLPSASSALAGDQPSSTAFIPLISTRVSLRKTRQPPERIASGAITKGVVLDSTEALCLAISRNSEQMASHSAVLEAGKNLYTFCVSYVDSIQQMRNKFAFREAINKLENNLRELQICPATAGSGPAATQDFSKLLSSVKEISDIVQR

[8] = target: Serine/threonine-protein kinase 3 (Homo sapiens, UniProt Q13188); assay: Selectivity interaction (ADP-Glo kinase assay) EUB0001619a STK3
Serine/threonine-protein kinase 3, sequence (Q13188 whole entry): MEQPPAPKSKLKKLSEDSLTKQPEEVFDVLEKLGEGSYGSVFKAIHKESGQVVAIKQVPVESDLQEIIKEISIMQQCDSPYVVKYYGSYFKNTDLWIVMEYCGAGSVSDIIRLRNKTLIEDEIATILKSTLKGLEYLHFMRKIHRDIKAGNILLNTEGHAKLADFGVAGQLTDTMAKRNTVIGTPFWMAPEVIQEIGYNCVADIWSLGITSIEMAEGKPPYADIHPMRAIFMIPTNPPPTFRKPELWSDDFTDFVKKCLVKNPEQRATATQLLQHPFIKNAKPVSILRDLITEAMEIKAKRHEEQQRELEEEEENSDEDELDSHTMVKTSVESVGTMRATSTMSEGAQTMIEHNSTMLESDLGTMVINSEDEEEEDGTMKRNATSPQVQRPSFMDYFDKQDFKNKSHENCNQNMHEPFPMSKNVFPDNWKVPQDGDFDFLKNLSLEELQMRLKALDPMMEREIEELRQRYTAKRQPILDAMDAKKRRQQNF

Activin receptor type-2B (Homo sapiens), sequence (Q13705 whole entry): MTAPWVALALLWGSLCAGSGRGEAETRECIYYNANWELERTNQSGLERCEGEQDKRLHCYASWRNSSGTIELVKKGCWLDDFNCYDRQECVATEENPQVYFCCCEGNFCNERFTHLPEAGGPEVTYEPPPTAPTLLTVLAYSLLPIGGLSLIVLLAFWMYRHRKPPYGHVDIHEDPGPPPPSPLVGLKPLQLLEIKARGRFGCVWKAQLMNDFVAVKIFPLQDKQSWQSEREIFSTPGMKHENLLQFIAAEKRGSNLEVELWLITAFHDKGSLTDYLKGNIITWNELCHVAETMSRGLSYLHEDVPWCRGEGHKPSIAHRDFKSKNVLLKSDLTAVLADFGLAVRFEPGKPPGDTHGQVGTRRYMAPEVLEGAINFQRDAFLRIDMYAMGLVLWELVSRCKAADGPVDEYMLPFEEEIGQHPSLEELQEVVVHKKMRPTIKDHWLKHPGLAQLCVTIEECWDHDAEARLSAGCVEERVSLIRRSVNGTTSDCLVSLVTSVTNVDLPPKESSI
Vascular endothelial growth factor receptor 2, sequence (P35968 whole entry): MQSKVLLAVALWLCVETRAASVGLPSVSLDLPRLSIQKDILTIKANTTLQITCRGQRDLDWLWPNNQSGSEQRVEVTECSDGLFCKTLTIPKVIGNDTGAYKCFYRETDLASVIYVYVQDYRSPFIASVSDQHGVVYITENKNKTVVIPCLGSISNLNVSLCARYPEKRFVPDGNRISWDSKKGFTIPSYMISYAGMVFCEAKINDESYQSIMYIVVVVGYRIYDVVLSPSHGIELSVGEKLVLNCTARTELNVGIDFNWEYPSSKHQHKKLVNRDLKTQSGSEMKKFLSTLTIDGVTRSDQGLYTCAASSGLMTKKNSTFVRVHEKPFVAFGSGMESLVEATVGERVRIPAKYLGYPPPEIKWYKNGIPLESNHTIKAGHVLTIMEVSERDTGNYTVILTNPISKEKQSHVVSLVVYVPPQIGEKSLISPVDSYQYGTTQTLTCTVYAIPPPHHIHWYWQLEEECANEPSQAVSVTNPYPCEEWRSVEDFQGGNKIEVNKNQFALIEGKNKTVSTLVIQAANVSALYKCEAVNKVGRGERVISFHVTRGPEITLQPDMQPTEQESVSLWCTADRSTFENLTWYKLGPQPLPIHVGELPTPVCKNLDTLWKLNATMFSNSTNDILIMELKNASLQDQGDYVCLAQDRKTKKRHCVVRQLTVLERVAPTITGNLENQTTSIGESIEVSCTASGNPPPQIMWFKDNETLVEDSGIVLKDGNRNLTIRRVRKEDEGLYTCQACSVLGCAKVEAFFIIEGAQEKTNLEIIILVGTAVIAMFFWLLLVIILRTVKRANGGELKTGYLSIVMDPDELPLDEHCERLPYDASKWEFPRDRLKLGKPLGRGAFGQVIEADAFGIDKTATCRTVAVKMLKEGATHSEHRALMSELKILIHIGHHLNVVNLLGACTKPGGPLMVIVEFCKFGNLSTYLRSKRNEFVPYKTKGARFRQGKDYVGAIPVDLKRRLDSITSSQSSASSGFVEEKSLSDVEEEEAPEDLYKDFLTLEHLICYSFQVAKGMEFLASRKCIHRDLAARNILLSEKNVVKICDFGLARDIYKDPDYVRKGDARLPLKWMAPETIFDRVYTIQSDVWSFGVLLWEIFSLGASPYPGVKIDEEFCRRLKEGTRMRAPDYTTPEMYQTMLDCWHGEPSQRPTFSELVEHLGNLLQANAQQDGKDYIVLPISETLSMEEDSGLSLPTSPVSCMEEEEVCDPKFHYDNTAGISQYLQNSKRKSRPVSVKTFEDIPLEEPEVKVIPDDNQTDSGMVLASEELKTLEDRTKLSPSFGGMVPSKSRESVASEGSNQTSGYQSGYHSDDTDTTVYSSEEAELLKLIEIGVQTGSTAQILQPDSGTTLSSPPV

## CCN(CC)CCCCNc1ncc2cc(-c3cc(OC)cc(OC)c3)c(NC(=O)NC(C)(C)C)nc2n1
[1]
  % of control: 21%
[2]
  % of control: 100%

## O=C(NOC[C@H](O)CO)c1ccc(F)c(F)c1Nc1ccc(I)cc1F
[3]
  % of control: 95%

## CC[C@@H]1[C@H](F)C(=O)N[C@@H]1COc1nccc2cc(C(N)=O)c(OC)cc12 [ZIMLOVISERTIB]
[4]
  % of inhibition: 11.5%

## COc1cc(Nc2nc(C)cc(-c3cnn4nc(OC)ccc34)n2)cc(C(F)(F)F)c1
[5]
  % of control: 100%

## CC(=O)c1cc(-c2ccccc2OCC2CC2)c2ncccn12
[6]
  % of control: 84%

## CN(C)C/C=C/C(=O)Nc1ccc(C(=O)N2CCCC(Nc3ncc(Cl)c(-c4c[nH]c5ccccc45)n3)C2)cc1 (stereo not drawn)
[7]
  % of control: 97%

## N#Cc1cccc(-c2c[nH]c3ncnc(N4CCOCC4)c23)c1
[8]
  IC50: 76 nM
